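Following 48 hours of exposure in 96-well plates, responses at five concentrations were used to interpolate endpoints linearly. The concentration for 50% growth inhibition is given as GI50.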 Activity calls are given as the source filed them. Cut-off read from the data, not from the text of the source: active = GI50 up to about 1.1 µM and inactive = higher.
Assays:
Assay in all cases: NCI tumour cell line growth inhibition, 48 h
HOP-62 = system: HOP-62
IGROV-1 = system: IGROV-1
CCRF-CEM = system: CCRF-CEM
MDA-MB-231 = system: MDA-MB-231
SF-295 = system: SF-295
HL-60 = system: HL-60
CAKI-1 = system: CAKI-1
MDA-MB-435 = system: MDA-MB-435
M14 = system: M14
NCI-H226 = system: NCI-H226
DU-145 = system: DU-145
HCC 2998 = system: HCC 2998
SF-268 = system: SF-268
RXF 393 = system: RXF 393
SNB-75 = system: SNB-75
SW-620 = system: SW-620
T47D = system: T47D
NCI-H460 = system: NCI-H460

Structure (SMILES)	GI50 (HOP-62)	GI50 (IGROV-1)	GI50 (CCRF-CEM)	GI50 (MDA-MB-231)	GI50 (SF-295)	GI50 (HL-60)	GI50 (CAKI-1)	GI50 (MDA-MB-435)	GI50 (M14)	GI50 (NCI-H226)	GI50 (DU-145)	GI50 (HCC 2998)	GI50 (SF-268)	GI50 (RXF 393)	GI50 (SNB-75)	GI50 (SW-620)	GI50 (T47D)	GI50 (NCI-H460)
CC1(C)C(N2CCOCC2)CS1(=O)=O (configuration not stated)	> 10 µM (inactive)	> 10 µM (inactive)	> 10 µM (inactive)	> 10 µM (inactive)	> 10 µM (inactive)	> 10 µM (inactive)	> 10 µM (inactive)	> 10 µM (inactive)	> 10 µM (inactive)	> 10 µM (inactive)	> 10 µM (inactive)	> 10 µM (inactive)	> 10 µM (inactive)	> 10 µM (inactive)	4.98 µM (inactive)	> 10 µM (inactive)	> 10 µM (inactive)	> 10 µM (inactive)
C/C(=N\NC(N)=S)c1ccccn1.OB(O)c1ccccc1	5.5 µM (inactive)	4.46 µM (inactive)	2.18 µM (inactive)	7.16 µM (inactive)	7.05 µM (inactive)	1.1 µM (active)	3.63 µM (inactive)	7.55 µM (inactive)	2.98 µM (inactive)	6.12 µM (inactive)	3.3 µM (inactive)	4.36 µM (inactive)	2.67 µM (inactive)	2.37 µM (inactive)	12.9 µM (inactive)	5.93 µM (inactive)	3.8 µM (inactive)	3.78 µM (inactive)
O=C1CCCc2cc3c(cc21)CC1(C3)Cc2cc3c(cc2C1)C(=O)CCC3	2.29 µM (inactive)	1.38 µM (inactive)	0.998 µM (active)	3.16 µM (inactive)	0.923 µM (active)	0.368 µM (active)	1.91 µM (inactive)	0.231 µM (active)	0.536 µM (active)	2.7 µM (inactive)	2.18 µM (inactive)	2.34 µM (inactive)	3.37 µM (inactive)	1.45 µM (inactive)	2.2 µM (inactive)	0.815 µM (active)	9.48 µM (inactive)	1.22 µM (inactive)
O=C(NC12CC3CC(CC(C3)C1)C2)n1cnc2cncnc21	18.2 µM (inactive)	26.6 µM (inactive)	26.5 µM (inactive)	70 µM (inactive)	21.6 µM (inactive)	28.7 µM (inactive)	28.4 µM (inactive)	31.3 µM (inactive)	54.7 µM (inactive)	–	25.6 µM (inactive)	35.6 µM (inactive)	53.5 µM (inactive)	26.5 µM (inactive)	44.5 µM (inactive)	39.8 µM (inactive)	20.6 µM (inactive)	32.3 µM (inactive)
NC(=S)NS(=O)(=O)c1ccc(Cl)cc1	> 100 µM (inactive)	> 100 µM (inactive)	> 100 µM (inactive)	> 100 µM (inactive)	> 100 µM (inactive)	> 100 µM (inactive)	> 100 µM (inactive)	> 100 µM (inactive)	> 100 µM (inactive)	> 100 µM (inactive)	> 100 µM (inactive)	> 100 µM (inactive)	> 100 µM (inactive)	> 100 µM (inactive)	> 100 µM (inactive)	> 100 µM (inactive)	> 100 µM (inactive)	> 100 µM (inactive)
O=C1OC(CCCN2CCCCC2)(c2ccccc2)CC12CCCC2 (configuration not stated)	> 100 µM (inactive)	> 100 µM (inactive)	54.5 µM (inactive)	> 75.9 µM (inactive)	> 84.9 µM (inactive)	52.5 µM (inactive)	> 100 µM (inactive)	67.8 µM (inactive)	17.7 µM (inactive)	> 96.6 µM (inactive)	> 100 µM (inactive)	66.1 µM (inactive)	> 100 µM (inactive)	80 µM (inactive)	23 µM (inactive)	> 100 µM (inactive)	> 100 µM (inactive)	89.1 µM (inactive)
CC(=O)NCC1OC2COC(c3ccccc3)OC2C2N=C(c3ccccc3)OC12 (configuration not stated)	> 100 µM (inactive)	–	35.4 µM (inactive)	> 100 µM (inactive)	35.3 µM (inactive)	26.7 µM (inactive)	> 100 µM (inactive)	85.3 µM (inactive)	60.8 µM (inactive)	67.5 µM (inactive)	> 100 µM (inactive)	66.5 µM (inactive)	81.1 µM (inactive)	41.7 µM (inactive)	38.2 µM (inactive)	80.9 µM (inactive)	19.1 µM (inactive)	60.7 µM (inactive)
Nc1nc(Cl)cc(NCC2(CO)CCC2)n1	> 100 µM (inactive)	> 100 µM (inactive)	> 100 µM (inactive)	> 100 µM (inactive)	> 100 µM (inactive)	> 100 µM (inactive)	> 100 µM (inactive)	> 100 µM (inactive)	–	> 100 µM (inactive)	> 100 µM (inactive)	> 100 µM (inactive)	> 100 µM (inactive)	> 100 µM (inactive)	> 100 µM (inactive)	> 100 µM (inactive)	29.7 µM (inactive)	> 100 µM (inactive)
CC(=O)CC1CCC(=O)CCC(=O)OC(CC(C)=O)CCC(=O)CCC(=O)O1 (configuration not stated)	> 100 µM (inactive)	> 100 µM (inactive)	> 100 µM (inactive)	> 100 µM (inactive)	> 100 µM (inactive)	> 100 µM (inactive)	–	> 100 µM (inactive)	> 100 µM (inactive)	> 100 µM (inactive)	> 100 µM (inactive)	> 100 µM (inactive)	> 100 µM (inactive)	> 100 µM (inactive)	> 100 µM (inactive)	> 100 µM (inactive)	> 100 µM (inactive)	> 100 µM (inactive)
Cc1cc(C)nc(NS(=O)(=O)c2ccc(NNc3c4ccccc4nc4c(C(=O)Nc5ccc(S(=O)(=O)Nc6cc(C)on6)cc5)cccc34)cc2)n1	82 µM (inactive)	29 µM (inactive)	23.1 µM (inactive)	33.1 µM (inactive)	57.1 µM (inactive)	30.8 µM (inactive)	87.5 µM (inactive)	41.5 µM (inactive)	53.2 µM (inactive)	25.8 µM (inactive)	49.2 µM (inactive)	23.2 µM (inactive)	27.4 µM (inactive)	44.1 µM (inactive)	30.9 µM (inactive)	39.5 µM (inactive)	33.5 µM (inactive)	40.9 µM (inactive)
CCCCCCc1cc2cc(C(=O)NCc3ccccc3)c(=N)oc2cc1O	> 100 µM (inactive)	> 100 µM (inactive)	> 100 µM (inactive)	> 100 µM (inactive)	–	> 100 µM (inactive)	> 100 µM (inactive)	> 100 µM (inactive)	> 100 µM (inactive)	> 100 µM (inactive)	> 100 µM (inactive)	> 100 µM (inactive)	> 100 µM (inactive)	> 100 µM (inactive)	> 100 µM (inactive)	> 100 µM (inactive)	> 100 µM (inactive)	> 100 µM (inactive)
CCOC(=O)C(=O)C(CCC(=O)c1ccc2ccccc2c1O)C(=O)OCC (configuration not stated)	–	> 100 µM (inactive)	> 100 µM (inactive)	> 100 µM (inactive)	> 100 µM (inactive)	> 100 µM (inactive)	> 100 µM (inactive)	> 100 µM (inactive)	> 100 µM (inactive)	38.5 µM (inactive)	> 100 µM (inactive)	> 100 µM (inactive)	> 100 µM (inactive)	> 100 µM (inactive)	> 100 µM (inactive)	> 100 µM (inactive)	> 100 µM (inactive)	> 100 µM (inactive)
N#Cc1c(O)c2ccccc2[nH]c1=O	> 100 µM (inactive)	> 100 µM (inactive)	> 100 µM (inactive)	> 100 µM (inactive)	> 100 µM (inactive)	> 100 µM (inactive)	> 100 µM (inactive)	> 100 µM (inactive)	> 100 µM (inactive)	> 100 µM (inactive)	> 100 µM (inactive)	> 100 µM (inactive)	–	> 100 µM (inactive)	> 100 µM (inactive)	> 100 µM (inactive)	> 100 µM (inactive)	–
CC(=O)NNC1=NN(C(C)=O)C2(S1)C(=O)Nc1ccc(C)cc12 (configuration not stated)	35.3 µM (inactive)	66.5 µM (inactive)	48.4 µM (inactive)	80.2 µM (inactive)	97.9 µM (inactive)	38.3 µM (inactive)	73.6 µM (inactive)	> 100 µM (inactive)	> 100 µM (inactive)	> 100 µM (inactive)	> 100 µM (inactive)	47.1 µM (inactive)	> 100 µM (inactive)	44.9 µM (inactive)	45.7 µM (inactive)	–	23 µM (inactive)	67 µM (inactive)
O=[N+]([O-])c1cccc([N+](=O)[O-])c1Cl	23.5 µM (inactive)	15.9 µM (inactive)	–	21.2 µM (inactive)	16.1 µM (inactive)	2.82 µM (inactive)	3.18 µM (inactive)	17.9 µM (inactive)	10.2 µM (inactive)	27 µM (inactive)	2.86 µM (inactive)	1.47 µM (inactive)	19.4 µM (inactive)	17.7 µM (inactive)	30.3 µM (inactive)	17 µM (inactive)	2.96 µM (inactive)	23.3 µM (inactive)
COC(=O)c1ccc2c(c1)CC1(C2)Cc2cc3c(c(C(=O)OC)c2C1)CCCC3 (configuration not stated)	> 100 µM (inactive)	> 100 µM (inactive)	48.6 µM (inactive)	64.3 µM (inactive)	50 µM (inactive)	31.5 µM (inactive)	28.8 µM (inactive)	84.1 µM (inactive)	–	96.8 µM (inactive)	> 100 µM (inactive)	86.5 µM (inactive)	> 100 µM (inactive)	> 100 µM (inactive)	77.6 µM (inactive)	> 100 µM (inactive)	47.3 µM (inactive)	96.6 µM (inactive)

Source: ChEMBL document CHEMBL1201862, “PubChem BioAssay data set” (2004)
